Results on 16 molecules are retold here after patent US12624018B1, “Inhibitors of RIPK2 and medical uses thereof” (Odyssey Therapeutics, Inc., priority 2022, dated 2026).

Read-outs that look alike come from different tables or passages of the source.

Assay [1] deals with T1, RIPK2 enzyme (Homo sapiens, UniProt O43353).
T1 construct: purchased Carna 09-128
The assay can be described thus: RIPK2 inhibition (ADP-Glo Kinase Assay). Format: biochemical. Conditions: RIPK2 5 nM, ATP 150 μM, MBP substrate, read-out: RIPK2 IC50. Put shortly:
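Human RIPK2 (5 nM) preincubated with compound 30 min at room temperature in 50 mM HEPES pH 7.5, 10 mM MgCl2, 2 mM DTT, 1 mM EGTA, 0.01% Brij-35, 0.05% BSA; native swine MBP as substrate. ADP formed quantified by ADP-Glo luminescence; percent inhibition relative to DMSO and no-enzyme controls.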

For assay [2], the system named is TNF-alpha secretion in human whole blood. The assay can be described thus: Inhibition of TNF-alpha secretion in human whole blood (IFN-gamma primed, L18-MDP stimulated). It is filed as cell-based. The following applies: L18-MDP 100 ng/mL, read-out: Human Whole Blood TNFα IC50. How it is done:
Materials: Assay medium consisted of RPMI 1640 medium (catalogue number: 11875119) and 10% heat inactivated FBS (Cytvia). U-PLEX Biomarker Assay (cat #K15067L-4) to detect levels of TNF-alpha was purchased from Meso Scale Discovery. Heparinized whole blood from healthy donors/volunteers was obtained through Research Blood Components, LLC.
Test compounds were prepared into a 10 mM DMSO solution and serially diluted into 9 points using a 3-fold dilution in a 96 well plate. A 10× working stock solution of recombinant human IFN-gamma (final concentration of 10 ng/mL) was prepared in assay medium and used to prepare a 10× solution of test compound. 20 μL of 10×IFN-gamma and test compound (or DMSO control) was added to a 96-well plate. 160 μL of heparinized whole blood obtained from healthy donors was dispensed into individual wells of the 96-well plate and placed on a plate shaker (150 rpm) and incubated for 60 min at 37° C. in a CO2 incubator. Subsequently, 20 μL of L18-MDP (final concentration of 100 ng/mL) was added to the appropriate wells and further incubated for 16 hours on a plate shaker (150 rpm) at 37° C. in a CO2 incubator. The final concentration of DMSO was 0.05% (v/v) in all wells. After incubation, 100 μL of DPBS was added per well, mixed by shaking at 500 rpm for 2 minutes, followed by centrifugation (400×g for 10 minutes) and collection of supernatants. TNF-alpha in supernatants was measured using MSD immunoassay (MesoScale Discovery). 4-parametric curve fit was used to determine the test compound concentration that results in 50% reduction of TNF-alpha concentration in supernatant relative to assay controls.

Assay [3] concerns the target T2, RIPK2 and XIAP protein-protein interaction (Homo sapiens, UniProt O43353).
T2 construct: the N-terminus of full-length RIPK2 was appended with the HaloTag fusion protein; expressed in transfected cells; host or cells: HEK293T
The assay can be described thus: Inhibition of the interaction of RIPK2 with XIAP (NanoBRET in HEK293T cells). It is filed as cell-based. The following applies: RIPK2 HaloTag / XIAP NanoLuc, read-out: NanoBRET Scaffolding IC50. The procedure, abridged: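 HEK293T cells transiently co-transfected with HaloTag-RIPK2 (N-terminal) and XIAP-NanoLuc (C-terminal) full-length fusions, grown 24 h at 37° C. in Opti-MEM with 4% FBS. Compounds tested as 10-point 3-fold dilutions; NanoBRET ratio taken as 618 nm acceptor over 460 nm donor emission.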

Assay [4] has as its system human NOD2 signaling. The assay can be described thus: Inhibition of human NOD2 signaling in HEK-Blue-hNOD2 cells (L18-MDP stimulated, SEAP reporter). Conditions: NOD2 ligand stimulation, SEAP reporter, read-out: hNOD2 IC50. Format: cell-based. The procedure, abridged: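 HEK-Blue-hNOD2 cells (HEK293 with NOD2 and SEAP reporter), 12500/well, treated with 10-point 3-fold compound dilutions plus L18-MDP 0.5 ng/mL final, 24 h at 37 °C. Supernatant SEAP read with QUANTI-Blue after 3 h at 620 nm; IC50 by 4-parameter fit vs DMSO±L18-MDP controls.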

[5] abbreviates: Homo sapiens, HEK-Blue hNOD2, HEK-Blue-hNOD2 cells.

T1 sequence (O43353 1-299 limits assumed): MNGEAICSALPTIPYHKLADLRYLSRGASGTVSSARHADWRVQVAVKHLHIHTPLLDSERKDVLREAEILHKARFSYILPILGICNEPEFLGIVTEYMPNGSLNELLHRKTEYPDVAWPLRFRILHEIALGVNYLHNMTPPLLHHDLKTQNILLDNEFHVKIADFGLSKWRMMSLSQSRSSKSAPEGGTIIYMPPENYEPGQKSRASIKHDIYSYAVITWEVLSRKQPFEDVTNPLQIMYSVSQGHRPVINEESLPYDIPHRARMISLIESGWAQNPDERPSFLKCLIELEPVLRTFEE
T2 sequence (O43353 whole entry, the tested form may be a part): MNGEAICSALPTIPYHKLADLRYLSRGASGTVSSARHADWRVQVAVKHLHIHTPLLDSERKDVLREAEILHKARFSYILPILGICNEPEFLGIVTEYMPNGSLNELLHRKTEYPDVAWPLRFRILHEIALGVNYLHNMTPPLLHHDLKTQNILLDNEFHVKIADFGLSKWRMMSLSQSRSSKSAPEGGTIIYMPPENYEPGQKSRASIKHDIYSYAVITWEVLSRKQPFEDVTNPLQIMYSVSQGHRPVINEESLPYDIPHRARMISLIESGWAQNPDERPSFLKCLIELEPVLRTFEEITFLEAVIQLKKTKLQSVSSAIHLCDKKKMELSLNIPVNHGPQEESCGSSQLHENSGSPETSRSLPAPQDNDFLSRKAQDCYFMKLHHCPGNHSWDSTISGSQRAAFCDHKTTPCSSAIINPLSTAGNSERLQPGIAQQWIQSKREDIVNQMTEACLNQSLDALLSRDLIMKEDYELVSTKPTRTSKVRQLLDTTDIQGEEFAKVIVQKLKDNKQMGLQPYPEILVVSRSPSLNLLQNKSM

On to `CC(C)(C)n1cc(NC(=O)Cc2ccc(Oc3ccnc4ccc(S(C)(=N)=O)cc34)c(Cl)c2)cn1` (single isomer, unassigned) [Compound 197, N-(1-(tert-butyl)-1H-pyrazol-4-yl)-2-(3-chloro-4-((6-(S-methylsulfonimidoyl)quinolin-4-yl)oxy)phenyl)acetamide], for which the IC50 in assay [1] was less than 2.5 nM; in assay [2] (Homo sapiens, 16 h), 24 nM; in assay [3], 93 nM; in assay [4] (setting [5]) it was 4 nM.

On to `Cc1cc(C(C)C(=O)Nc2cnn(C(C)(C)C)c2)ccc1Oc1ccnc2ccc(S(C)(=O)=O)cc12` (single isomer, unassigned) [Compound 215, N-(1-(tert-butyl)-1H-pyrazol-4-yl)-2-(3-methyl-4-((6-(methylsulfonyl)quinolin-4-yl)oxy)phenyl)propanamide], for which the IC50 in assay [1] was less than 2.5 nM; in assay [2] (Homo sapiens, 16 h), 55 nM; in assay [3], 39 nM; in assay [4] (setting [5]) it was 3.2 nM.

Turning to `Cc1c(Oc2ccnc3ccc(S(=N)(=O)C4CC4)cc23)ccc(CC(=O)Nc2cnn(C(C)(C)C)c2)c1F` (single isomer, unassigned) [Compound 441, N-(1-(tert-butyl)-1H-pyrazol-4-yl)-2-(4-((6-(cyclopropanesulfonimidoyl)quinolin-4-yl)oxy)-2-fluoro-3-methylphenyl)acetamide], the IC50 in assay [1] is less than 2.5 nM; in assay [2] (Homo sapiens, 16 h) it was 6 nM; in assay [3], 8 nM; in assay [4] (setting [5]), 0.2 nM.

Turning to `Cc1c(Oc2ccnc3ccc(S(=N)(=O)C4CC4)cc23)ccc(CC(=O)Nc2cnn(C(C)(C)C)c2)c1F` (single isomer, unassigned) [Compound 442, N-(1-(tert-butyl)-1H-pyrazol-4-yl)-2-(4-((6-(cyclopropanesulfonimidoyl)quinolin-4-yl)oxy)-2-fluoro-3-methylphenyl)acetamide], the IC50 was less than 2.5 nM in assay [1], 7 nM in assay [2] (16 hours), 3 nM in assay [3] and 0.2 nM in assay [4] (HEK-Blue-hNOD2 cells).

On to `Cc1cc(CC(=O)Nc2cnn(C(C)(C)C)c2)ccc1Oc1ccnc2ccc(S(=N)(=O)C3CC3)cc12` (single isomer, unassigned) [Compound 543, N-(1-(tert-butyl)-1H-pyrazol-4-yl)-2-(4-((6-(cyclopropanesul-fonimidoyl)quinolin-4-yl)oxy)-3-methylphenyl) acetamide], for which the IC50 is less than 2.5 nM in assay [1]; 3 nM in assay [2] (Homo sapiens, 16 h); 77.5 nM in assay [3]; 1.2 nM in assay [4] (setting [5]).

For the molecule `Cc1cc(CC(=O)Nc2cnn(C(C)(C)C)c2)ccc1Oc1ccnc2ccc(S(=N)(=O)C3CC3)cc12` (single isomer, unassigned) [Compound 544, N-(1-(tert-butyl)-1H-pyrazol-4-yl)-2-(4-((6-(cyclopropanesul-fonimidoyl)quinolin-4-yl)oxy)-3-methylphenyl) acetamide], the IC50 in assay [1] is less than 2.5 nM; in assay [2] (16 hours), 4.5 nM; in assay [3], 123 nM; in assay [4] (HEK-Blue-hNOD2 cells), 2 nM.

In the case of `CCS(=N)(=O)c1ccc2nccc(Oc3ccc(CC(=O)Nc4cnn(C(C)(C)C)c4)cc3C)c2c1` (single isomer, unassigned) [Compound 545, N-(1-(tert-butyl)-1H-pyrazol-4-yl)-2-(4-((6-(ethylsulfonimidoyl)quinolin-4-yl)oxy)-3-methylphenyl) acetamide], the IC50 in assay [1] is less than 2.5 nM; in assay [2] (Homo sapiens, 16 h), 5.9 nM; in assay [3], 184 nM; in assay [4] (setting [5]) it was 1.8 nM.

For the molecule `CCS(=N)(=O)c1ccc2nccc(Oc3ccc(CC(=O)Nc4cnn(C(C)(C)C)c4)cc3C)c2c1` (single isomer, unassigned) [Compound 546, N-(1-(tert-butyl)-1H-pyrazol-4-yl)-2-(4-((6-(ethylsulfonimidoyl)quinolin-4-yl)oxy)-3-methylphenyl) acetamide], the IC50 was less than 2.5 nM in assay [1], 4 nM in assay [2] (16 hours), 204 nM in assay [3] and 1.4 nM in assay [4] (HEK-Blue-hNOD2 cells).

With `COc1ccc2ncnc(Oc3ccc(CC(=O)Nc4cnn(C(C)(C)C)c4)c(F)c3)c2c1` [Compound 8, N-(1-(tert-butyl)-1H-pyrazol-4-yl)-2-(2-fluoro-4-((6-methoxy-quinazolin-4-yl)oxy)phenyl) acetamide], the IC50 in assay [1] was 7.6 nM; in assay [2] (Homo sapiens, 16 h), 103 nM; in assay [3], 6 nM; in assay [4] (setting [5]) it was 11.4 nM.

For the molecule `CN1CCC(Oc2ccc3ncnc(Oc4cnc(CC(=O)Nc5cnn(C(C)(C)C)c5)c(F)c4)c3c2)CC1` [Compound 20, N-(1-(tert-butyl)-1H-pyrazol-4-yl)-2-(3-fluoro-5-((6-((1-methylpiperidin-4-yl)oxy)quinazolin-4-yl)oxy)pyridin-2-yl)acetamide], the IC50 in assay [1] stood at 10.4 nM; in assay [2] (Homo sapiens, 16 h), 12 nM; in assay [3], 144 nM; in assay [4] (setting [5]), 21.7 nM.

As to `CC(C)(C)n1cc(NC(=O)Cc2ccc(Oc3ccnc4ccc(S(C)(=N)=O)cc34)cc2F)cn1` (stereo not drawn) [Compound 43, N-(1-(tert-butyl)-1H-pyrazol-4-yl)-2-(2-fluoro-4-((6-(S-methylsulfonimidoyl)quinolin-4-yl)oxy)phenyl)acetamide], the IC50 was 4.8 nM in assay [1]; 5 nM in assay [2] (Homo sapiens, 16 h); 218 nM in assay [3]; 39.3 nM in assay [4] (setting [5]).

Turning to `CN1CCC(Oc2ccc3nccc(Oc4cnc(CC(=O)Nc5cnn(C(C)(C)C)c5)c(F)c4)c3c2)CC1` [Compound 78, N-(1-(tert-butyl)-1H-pyrazol-4-yl)-2-(3-fluoro-5-((6-((1-methylpiperidin-4-yl)oxy)quinolin-4-yl)oxy)pyridin-2-yl)acetamide], the IC50 came out at 13.4 nM in assay [1]; 7 nM in assay [2] (Homo sapiens, 16 h); 37 nM in assay [3]; 32.7 nM in assay [4] (setting [5]).

`CCS(=O)(=O)c1ccc2nccc(Oc3cc(F)c(CC(=O)Nc4cnn(C(C)(C)C)c4)cc3C)c2c1` [Compound 306, N-(1-(tert-butyl)-1H-pyrazol-4-yl)-2-(4-((6-(ethylsulfonyl)quinolin-4-yl)oxy)-2-fluoro-5-methylphenyl)acetamide]: the IC50 was less than 2.5 nM in assay [1]; 8 nM in assay [2] (Homo sapiens, 16 h); 1.3 nM in assay [4] (setting [5]).

With `[2H]C([2H])([2H])NC(=O)c1cc2c(Oc3c(C)cc(CC(=O)Nc4cnn(C(C)(C)C)c4)cc3C)ccnc2cc1F` [Compound 583, 4-(4-(2-((1-(tert-butyl)-1H-pyrazol-4-yl)amino)-2-oxoethyl)-2,6-dimethylphenoxy)-7-fluoro-N-(methyl-d3)quinoline-6-carboxamide], the IC50 in assay [1] was less than 2.5 nM; in assay [3] it was 42.4 nM; in assay [4] (setting [5]) it was 1.2 nM.

For the molecule `Cc1cc(CC(=O)Nc2cnn(C(C)(C)C)c2)cc(Cl)c1Oc1ccnc2cc(F)c(C(N)=O)cc12` [Compound 584, 4-(4-(2-((1-(tert-butyl)-1H-pyrazol-4-yl)amino)-2-oxoethyl)-2-chloro-6-methylphenoxy)-7-fluoroquinoline-6-carboxamide], the IC50 in assay [1] is less than 2.5 nM; in assay [3], 44.6 nM; in assay [4] (setting [5]) it was 1.3 nM.

Consider `CNC(=O)c1cc2c(Oc3c(C)cc(CC(=O)Nc4cnn(C(C)(C)C)c4)cc3Cl)ccnc2cc1F` [Compound 585, 4-(4-(2-((1-(tert-butyl)-1H-pyrazol-4-yl)amino)-2-oxoethyl)-2-chloro-6-methylphenoxy)-7-fluoro-N-methylquinoline-6-carboxamide], for which the IC50 in assay [1] is less than 2.5 nM; in assay [3], 29.3 nM; in assay [4] (setting [5]), 0.9 nM.
